Reference: US10675267B2, “Methods for detection and eradication of myeloid leukemia stem cells” (priority 2015, dated 2020)
“Also recorded” adds a separate entry of the source.

Columns and labels:
[1] = system: AML LSC (CD34+ cells from AML primary samples); assay: SL/M2 stromal co-culture with colony formation (survival) and replating (self-renewal) assays, AML; format: cell-based, human
Description: In hypothesis-driven experiments, the splicing modulatory compound 17S-FD-895 was tested to determine efficacy in altering splicing activity in cell lines, and to evaluate effects on AML LSC survival and self-renewal capacity in humanized bone marrow stromal co-cultures and in PRIMAGRAFT™ AML LSC models. Cell culture experiments were performed using 293T and sAML (MOLM-13) cell lines, and SL and M2 bone marrow stromal cell lines. Animal studies were performed using immunocompromised Rag2−/−γc−/−[20] or NOD/SCID-IL2RG mice (Jackson Laboratory, Bar Harbor, Me.). Primary AML and normal control samples were used in in vitro hematopoietic stem and progenitor assays after bone marrow stromal co-culture and treatment with splicing modulatory compounds (FD-895 or 17S-FD-895) or vehicle control (DMSO). Colony formation potential and self-renewal capacity were assessed by counting colony numbers (survival) after two weeks of growth in semi-solid (methylcellulose) media, and subsequent replating capacity (self-renewal) was assessed after transfer to fresh methylcellulose for an additional two weeks of culture. Three primary AML samples were utilized to establish PRIMAGRAFT™ models in immunocompromised mice, and mice engrafted with cells from two of these models (AML-37 and AML-08) were treated with 17S-FD-895 or vehicle (DMSO) to evaluate changes in AML LSC survival and self-renewal capacity in vivo. Data were collected by flow cytometry and qRT-PCR analysis of CD34-selected human LSC-enriched cells from engrafted mice.
Bone marrow SL/M2 monolayers were established from freshly inactivated (irradiated) cells and then human CD34^+ cells selected from AML primary samples (n=8) and normal controls (CD34^+ cells from cord blood, CB, n=6; or aged bone marrow, n=6) were added. Survival and self-renewal of the CD34+ cells were investigated by methylcellulose-based colony and replating assays. Two SF3B1-targeted splicing modulators, FD-895 or 17S-FD-895, were added at the initiation of co-culture at concentrations ranging from 0.1 to 10 μM.
Mouse bone marrow stromal cell lines (SL and M2 mycoplasma-free authenticated cells obtained from ATCC) expressing human interleukin-3 (IL-3), stem cell factor (SCF) and granulocyte-colony stimulating factor (G-CSF), which support erythroid and myeloid cell expansion and differentiation, were maintained under standard culture conditions, as previously described. Briefly, SL cells were grown in complete medium containing DMEM (Corning), 10% FBS, 1% Glutamax, and 1% penicillin-streptomycin (Life Technologies), while M2 cells were grown in complete medium containing RPMI, 10% FBS, 1% Glutamax, and 1% penicillin-streptomycin (all from Life Technologies). Every four passages, cells were selected by addition of G418 and hygromycin to the culture media for one passage (3-4 days), to maintain human cytokine expression. All cell lines were maintained in T-25 or T-75 culture flasks and were passaged at dilutions of 1:5-1:10 every 2-4 days. Low passage aliquots of cells were thawed every two months to ensure consistency of experiments.
As previously described (Goff et al., 2013), humanized bone marrow SL/M2 monolayers were inactivated (irradiated) and then human CD34^+ cells selected from AML primary samples and normal controls were added for two weeks of co-culture, followed by methylcellulose-based colony and replating assays. FD-895 or 17S-FD-895 were added at the initiation of co-culture, with DMSO as a vehicle control.
Mouse bone marrow stromal cell lines (SL and M2 mycoplasma-free authenticated cells obtained from ATCC) expressing human interleukin-3 (IL-3), stem cell factor (SCF) and granulocyte-colony stimulating factor (G-CSF), which support erythroid and myeloid cell expansion and differentiation (Hogge et al., 1996), were maintained under standard culture conditions, as previously described (Goff et al., 2013). […]

[2] = system: normal cord blood CD34+ cells engrafted in Rag2−/−γc−/− mice; assay: Normal HSPC in vivo model (cord blood CD34+ cell engrafted mice); design: species or system mouse; conditions: 10 mg/kg versus vehicle
Description: All animal studies were performed in accordance with UCSD and NIH-equivalent ethical guidelines and were approved by the Institutional Animal Care and Use Committee (IACUC protocol # S06015). For all in vivo experiments, animals of both genders were utilized. […] At 7-28 weeks post-transplant (7-36 weeks old), mice were euthanized, and peripheral blood and single cell suspensions of hematopoietic organs were analyzed for human cell engraftment by FACS. […] Treatment was initiated at 8 weeks post-transplant, and at 10 weeks post-transplant, mice were euthanized, and peripheral blood and single cell suspensions of hematopoietic organs were analyzed for human cell engraftment by FACS. […]
Flow cytometric analysis was performed on single cell suspensions from each hematopoietic tissue essentially as for primary patient samples, and frequencies of total live human CD45+ cells, CD45+ CD34+ CD38− Lin− (stem) cells, CD45+ CD34+ CD38+ Lin− (progenitor) cells, and CD45+/CD33+ (leukemic blasts) were determined in each tissue. […]

[3] = two weeks SL/M2 co-culture, 0.1-10 μM, versus DMSO

CC[C@H](OC)[C@@H](C)[C@H]1O[C@@H]1[C@@H](O)[C@H](C)/C=C/C=C(\C)[C@H]1OC(=O)C[C@H](O)CC[C@@](C)(O)[C@@H](OC(C)=O)/C=C/[C@@H]1C (stereo in doubt) [Formula 17S-FD-895, 17S-FD-895]
AML LSC survival compared with FD-895 ([1]; 1 μM dose, p=0.020): significantly lower | LSC survival and self-renewal, validation cohort ([1]; 1 μM, separate patient samples, versus normal controls): Reduced AML LSC survival and self-renewal compared to normal controls | AML LSC self-renewal compared with FD-895 ([1]; 0.1 and 1 μM doses, p=0.001): significantly lower | functional potency compared with FD-895 ([1]; LSC assays): greater functional potency than FD-895 | therapeutic index (AML LSC versus normal HSPC) ([1]; LSC assays, stromal co-culture): favorable therapeutic index | AML LSC self-renewal (colony replating) [1, 3]: dose-dependent reduction; also recorded: reduced AML LSC self-renewal | AML LSC survival (colony formation) [1, 3]: dose-dependent reduction; also recorded: reduced AML LSC survival | total human hematopoietic cell or HSPC survival [2]: no effect
